Patent publication US9901577B2, “Oxoquinazolinyl-butanamide derivatives” (MERCK PATENT GMBH, priority 2013, dated 2018)
Like-named read-outs stand apart in the source and are kept apart here.

Experiments:
Tankyrase [1] = tested on: T1, Tankyrase; assay: Measurement of cellular inhibition of Tankyrase (Axin2 level in DLD1 cells, Luminex based assay); format: cell-based; details: read-out: EC50 [M] TNKS cellular assay; DLD1 cells, Axin2 increase, 24 hours
T1 construct: TNKS cellular assay; other: DLD1 cells, Axin2 increase, 24 hours
Protocol: (§1) Measurement of Cellular Inhibition of Tankyrase
(§2) Cells of the colon carcinoma cell line DLD1 are plated in 96 well plates with 1.5×10^4 cells per well. Next day, cells are treated with a serial dilution of test compound in seven steps as triplicates with a final DMSO concentration of 0.3%. […] The amount of isolated Axin2 protein is determined in a Luminex^200 machine (Luminex Corporation) according to the manufacturer's instruction by counting 100 events per well. […] As controls cells are treated with solvent alone (neutral control) and with a Tankyrase reference inhibitor IWR-2 (3E-06 M) which refers as control for maximum increase of Axin2. For analysis, the obtained data are normalized against the untreated solvent control and fitted for determination of the EC50 values using the Assay Explorer software (Accelrys).

PARP-1 = biological target: T2, PARP-1 (Homo sapiens, UniProt P09874); assay: PARP-1 autoparsylation assay (HTRF); format: biochemical; details: His-tagged Parp-1, autoparsylation
T2 construct: purchased Enzo Life Sciences GmbH, Lörrach, Germany

TNKS1 = biological target: T3, TNKS1 (Homo sapiens, UniProt O95271); assay: TNKS1 activity ELISA (autoparsylation assay); format: biochemical
T3 construct: GST-tagged Tnks-1 (1023-1327 aa, prepared in-house); made in house
Protocol: (§3) Description of the TNKS1 and TNKS2 ELISA Assay
(§4) Biochemical Activity Testing of TNKS 1 and 2: Activity ELISA (Autoparsylation Assay)
(§5) For analysis of autoparsylation activity of TNKS 1 and 2 an activity ELISA iss performed: In the first step GST tagged TNKS is captured on a Glutathione coated plate. Then the activity assay with biotinylated NAD is performed in the absence/presence of the compounds. During the enzymatic reaction GST tagged TNKS transfers biotinylated ADP-ribose to itself from biotinylated NAD as co-substrate. For the detection streptavidin-HRP conjugate is added that binds to the biotinylated TNKS and is thereby captured to the plates. The amount of biotinylated resp. autoparsylated TNKS is detected with a luminescence substrate for HRP. The level of the luminescence signal correlates directly with the amount of autoparsylated TNKS and therefore with activity of TNKS.
(§6) The activity ELISA is performed in 384 well Glutathione coated microtiter plates (Express capture Glutathione coated plate, Biocat, Heidelberg, Germany). The plates are pre-equilibrated with PBS. […] The plates are washed 3 times with PBS-Tween-20. The wells are blocked by incubation at room temperature for 20 minutes with 50 μl blocking buffer (PBS, 0.05% Tween-20, 0.5% BSA). Afterwards the plates are washed 3 times with PBS-Tween-20. […] The reaction is stopped by 3 times washing with PBS-Tween-20. For the detection 50 μl of 20 ng/μl Streptavidin, HRP conjugate (MoBiTec, Göttingen, Germany) in PBS/0.05% Tween-20/0.01% BSA are added and the plates are incubated for 30 minutes at room temperature. After three times washing with PBS-Tween-20 50 μl of SuperSignal ELISA Femto Maximum sensitivity substrate solution (ThermoFisherScientific (Pierce), Bonn, Germany) are added. Following a 1 minute incubation at room temperature luminescence signals are measured with an Envision multimode reader (Perkin Elmer LAS Germany GmbH) at 700 nm. The full value used is the inhibitor-free reaction. […] The inhibitory values (IC50) are determined using either the program Symyx Assay Explorer® or Condosseo® from GeneData.

TNKS2 = biological target: T4, TNKS2 (Homo sapiens, UniProt Q9H2K2); assay: TNKS2 activity ELISA (autoparsylation assay); format: biochemical
T4 construct: GST-tagged Tnks-2 (873-1166 aa, prepared in-house); made in house
Protocol: as §3, §4, §5, §6

DLD-1-cancer cells = details: Huang et al., 2009; cited from earlier work
β-catenin = details: by increasing the levels of AXIN1 and AXIN2 proteins; cited from earlier work
Tankyrase [2] = assay: Measurement of cellular inhibition of Tankyrase (Axin2 level in DLD1 cells, Luminex based assay); format: cell-based; details: for EC50: prior art compounds
Protocol: as §1, §2

[3] = GST-tagged Tnks-1, read-out: IC50 [M] TNKS1 ELISA
[4] = GST-tagged Tnks-2, read-out: IC50 [M] TNKS2 ELISA
[5] = prior art compounds, read-out: IC50 (TNKS1)

T2 sequence (P09874 whole entry): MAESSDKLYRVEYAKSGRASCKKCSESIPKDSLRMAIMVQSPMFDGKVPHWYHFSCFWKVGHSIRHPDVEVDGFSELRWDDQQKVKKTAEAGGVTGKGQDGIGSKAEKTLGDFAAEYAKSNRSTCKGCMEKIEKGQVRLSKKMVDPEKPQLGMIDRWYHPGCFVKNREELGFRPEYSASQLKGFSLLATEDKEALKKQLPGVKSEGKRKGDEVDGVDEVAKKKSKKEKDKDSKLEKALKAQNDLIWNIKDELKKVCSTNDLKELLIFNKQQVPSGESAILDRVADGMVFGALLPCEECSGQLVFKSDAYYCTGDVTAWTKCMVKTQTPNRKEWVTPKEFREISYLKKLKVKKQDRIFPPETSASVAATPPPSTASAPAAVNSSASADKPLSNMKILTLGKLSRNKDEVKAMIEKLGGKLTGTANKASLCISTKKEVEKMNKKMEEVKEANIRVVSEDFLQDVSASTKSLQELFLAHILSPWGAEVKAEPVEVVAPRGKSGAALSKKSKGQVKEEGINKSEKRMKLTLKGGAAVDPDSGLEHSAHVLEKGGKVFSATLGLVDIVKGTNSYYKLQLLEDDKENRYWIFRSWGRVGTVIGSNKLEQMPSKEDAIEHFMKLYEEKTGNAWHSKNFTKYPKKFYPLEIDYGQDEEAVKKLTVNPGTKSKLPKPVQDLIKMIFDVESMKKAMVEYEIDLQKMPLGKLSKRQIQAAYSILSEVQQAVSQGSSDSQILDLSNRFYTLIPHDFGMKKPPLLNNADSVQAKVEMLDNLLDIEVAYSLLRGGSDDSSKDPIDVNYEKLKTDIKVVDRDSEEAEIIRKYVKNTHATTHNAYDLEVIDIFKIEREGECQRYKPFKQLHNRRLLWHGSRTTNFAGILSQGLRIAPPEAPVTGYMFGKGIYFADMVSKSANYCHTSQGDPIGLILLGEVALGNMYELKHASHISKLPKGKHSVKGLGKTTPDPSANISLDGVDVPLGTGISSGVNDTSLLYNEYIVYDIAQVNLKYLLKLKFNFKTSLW
T3 sequence (O95271 1023-1327): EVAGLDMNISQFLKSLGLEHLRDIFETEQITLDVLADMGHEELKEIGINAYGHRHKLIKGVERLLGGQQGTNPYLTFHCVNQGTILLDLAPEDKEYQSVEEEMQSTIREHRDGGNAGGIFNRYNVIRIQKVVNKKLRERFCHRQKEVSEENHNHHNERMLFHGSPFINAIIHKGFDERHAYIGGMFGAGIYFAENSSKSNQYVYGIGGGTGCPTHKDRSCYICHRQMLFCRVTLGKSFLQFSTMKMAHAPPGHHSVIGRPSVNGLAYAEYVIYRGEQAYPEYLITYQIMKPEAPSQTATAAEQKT
T4 sequence (Q9H2K2 873-1166): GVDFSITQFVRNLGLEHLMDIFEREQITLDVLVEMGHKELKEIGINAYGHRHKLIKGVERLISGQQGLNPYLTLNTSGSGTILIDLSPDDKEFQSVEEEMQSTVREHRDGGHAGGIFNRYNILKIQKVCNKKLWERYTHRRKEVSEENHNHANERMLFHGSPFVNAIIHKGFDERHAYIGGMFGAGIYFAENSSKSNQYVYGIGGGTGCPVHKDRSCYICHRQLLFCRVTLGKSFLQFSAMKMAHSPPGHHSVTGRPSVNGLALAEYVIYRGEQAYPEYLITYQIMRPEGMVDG

| SMILES | EC50 (Tankyrase [1]) [M] | IC50 (PARP-1) [nM] | IC50 (TNKS1; [3]) [M] | IC50 (TNKS2; [4]) [M] | also measured |
| --- | --- | --- | --- | --- | --- |
| COc1ccc(C(=O)C2CCN(C(=O)CCCc3nc4ccc(F)cc4c(=O)[nH]3)CC2)cc1 [Compound A19, 6-Fluoro-2-{4-[4-(4-methoxy-benzoyl)-piperidin-1-yl]-4-oxo-butyl}-3H-quinazolin-4-one] | 8.3e-10 | 710 | 3.1e-10 | 3.2e-10 | – |
| COc1ccc(C(=O)C2CCN(C(=O)CCCc3nc4ccc(F)cc4c(=O)[nH]3)CC2)cc1F [Compound A20, 6-Fluoro-2-{4-[4-(3-fluoro-4-methoxy-benzoyl)-piperidin-1-yl]-4-oxo-butyl}-3H-quinazolin-4-one] | 3.4e-09 | 960 | 2.5e-10 | 2.5e-10 | – |
| COc1ccc(C(=O)C2CCN(C(=O)CCCc3nc4ccc(F)cc4c(=O)[nH]3)CC2)cn1 [Compound A21, 6-Fluoro-2-{4-[4-(6-methoxy-pyridine-3-carbonyl)-piperidin-1-yl]-4-oxo-butyl}-3H-quinazolin-4-one] | 7.8e-09 | 550 | 7.5e-10 | 6.8e-10 | – |
| N#Cc1ccc(OC2CCN(C(=O)CCCc3nc4ccc(F)cc4c(=O)[nH]3)CC2)cc1 [Compound A22, 4-{1-[4-(6-Fluoro-4-oxo-3,4-dihydro-quinazolin-2-yl)-butyryl]-piperidin-4-yloxy}-benzonitrile] | 5.6e-07 | 640 | 1.3e-07 | 7.6e-08 | – |
| COc1ccc(C(=O)C2CCN(C(=O)CCCc3nc4ccc(F)cc4c(=O)[nH]3)CC2)cc1C [Compound A24, 6-Fluoro-2-{4-[4-(4-methoxy-3-methyl-benzoyl)-piperidin-1-yl]-4-oxo-butyl}-3H-quinazolin-4-one] | 1e-09 | 1000 | 1.6e-10 | 1.4e-10 | – |
| COc1ccc(C(=O)C2CCN(C(=O)CCCc3nc4c(F)cccc4c(=O)[nH]3)CC2)cc1 [Compound A25, 8-Fluoro-2-{4-[4-(4-methoxy-benzoyl)-piperidin-1-yl]-4-oxo-butyl}-3H-quinazolin-4-one] | 2.1e-09 | 2100 | 2.8e-10 | 2e-10 | – |
| COc1ccc(C(=O)C2CCN(C(=O)CCCc3nc4c(F)cccc4c(=O)[nH]3)CC2)cc1F [Compound A26, 8-Fluoro-2-{4-[4-(3-fluoro-4-methoxy-benzoyl)-piperidin-1-yl]-4-oxo-butyl}-3H-quinazolin-4-one] | 1.3e-09 | 1300 | 3e-10 | 2e-10 | – |
| N#Cc1ccc(OC2CCN(C(=O)CCCc3nc4c(F)cccc4c(=O)[nH]3)CC2)cc1 [Compound A27, 4-{1-[4-(8-Fluoro-4-oxo-3,4-dihydro-quinazolin-2-yl)-butyryl]-piperidin-4-yloxy}-benzonitrile] | 4.4e-07 | 1.3 | – | – | IC50 (TNKS1): 1.5e-07 M; IC50 (TNKS2): 8.6e-08 M |
| O=C(c1ccc(F)cc1)C1CCN(C(=O)CCCc2nc3c(F)cccc3c(=O)[nH]2)CC1 [Compound A28, 8-Fluoro-2-{4-[4-(4-fluoro-benzoyl)-piperidin-1-yl]-4-oxo-butyl}-3H-quinazolin-4-one] | 4.2e-08 | 3300 | 8.7e-10 | 6.2e-10 | – |
| COc1ccc(C(=O)C2CCN(C(=O)CCCc3nc4c(F)cccc4c(=O)[nH]3)CC2)cc1C [Compound A29, 8-Fluoro-2-{4-[4-(4-methoxy-3-methyl-benzoyl)-piperidin-1-yl]-4-oxo-butyl}-3H-quinazolin-4-one] | 6.2e-10 | 2600 | 1.2e-10 | < 1e-10 | – |
| Nc1ncc(C2CCN(C(=O)CCCc3nc4ccccc4c(=O)[nH]3)CC2)cc1-c1ncccn1 [Compound A30, 2-[4-(6-Amino-5-pyrimidin-2-yl-3′,4′,5′,6-tetrahydro-2′H-[3,4]bipyridinyl-1′-yl)-4-oxo-butyl]-3H-quinazolin-4-one] | 1.2e-09 | 670 | – | – | IC50 (TNKS1): 4.1e-10 M; IC50 (TNKS2): 3e-10 M |
| N#Cc1cc(C2CCN(C(=O)CCCc3nc4ccc(F)cc4c(=O)[nH]3)CC2)cnc1N [Compound A31, 6-Amino-1′-[4-(6-fluoro-4-oxo-3,4-dihydro-quinazolin-2-yl)-butyryl]-1′,2′,3′,4′,5′,6′-hexahydro-[3,4]bipyridinyl-5-carbonitrile] | 2.9e-09 | 1400 | 2.1e-09 | 9.5e-10 | – |
| Nc1ncc(C2CCN(C(=O)CCCc3nc4ccc(F)cc4c(=O)[nH]3)CC2)cc1-c1ncccn1 [Compound A32, 2-[4-(6-Amino-5-pyrimidin-2-yl-3′,4′,5′,6′-tetrahydro-2′H-[3,4]bipyridinyl-1′-yl)-4-oxo-butyl]-6-fluoro-3H-quinazolin-4-one] | 2.3e-09 | 600 | 3.2e-10 | 3.4e-10 | – |
| COc1ccc(C(=O)C2CCN(C(=O)CCCc3nc4c(F)cccc4c(=O)[nH]3)CC2)cn1 [Compound A33, 8-Fluoro-2-{4-[4-(6-methoxy-pyridine-3-carbonyl)-piperidin-1-yl]-4-oxo-butyl}-3H-quinazolin-4-one] | 1.3e-08 | 5000 | 1.3e-09 | 5.2e-10 | – |
| N#Cc1cc(C2CCN(C(=O)CCCc3nc4c(F)cccc4c(=O)[nH]3)CC2)cnc1N [Compound A34, 6-Amino-1′-[4-(8-fluoro-4-oxo-3,4-dihydro-quinazolin-2-yl)-butyryl]-1′,2′,3′,4′,5′,6′-hexahydro-[3,4]bipyridinyl-5-carbonitrile] | 3.4e-08 | 2700 | 3.3e-09 | 1.6e-09 | – |
| Nc1ncc(C2CCN(C(=O)CCCc3nc4c(F)cccc4c(=O)[nH]3)CC2)cc1-c1ncccn1 [Compound A35, 2-[4-(6-Amino-5-pyrimidin-2-yl-3′,4′,5′,6′-tetrahydro-2′H-[3,4]bipyridinyl-1′-yl)-4-oxo-butyl]-8-fluoro-3H-quinazolin-4-one] | 1.8e-09 | 1400 | 4.9e-10 | 1.6e-10 | – |
| N#Cc1cc(C2CCN(C(=O)CCCc3nc4ccccc4c(=O)[nH]3)CC2)cnc1N [Compound A36, 6-Amino-1′-[4-(4-oxo-3,4-dihydro-quinazolin-2-yl)-butyryl]-1′,2′,3′,4′,5′,6-hexahydro-[3,4]bipyridinyl-5-carbonitrile] | 2e-08 | 1100 | – | – | IC50 (TNKS1): 1.9e-09 M; IC50 (TNKS2): 1.1e-09 M |
| Cn1cc(C(=O)C2CCN(C(=O)CCCc3nc4ccccc4c(=O)[nH]3)CC2)cn1 [Compound A41, 2-{4-[4-(1-Methyl-1H-pyrazole-4-carbonyl)-piperidin-1-yl]-4-oxo-butyl}-3H-quinazolin-4-one] | 9e-09 | 2100 | 5.8e-10 | 3.3e-10 | – |
| Oc1nc(-c2ccc(C(F)(F)F)cc2)nc2c1CSCC2 [XAV939] | – | – | – | – | growth of DLD-1-cancer cells (DLD-1-cancer cells): inhibits growth; Wnt-stimulated accumulation of β-catenin (β-catenin): blocked Wnt-stimulated accumulation of β-catenin |
| O=c1[nH]c(-c2ccc3c(c2)OCO3)nc2ccccc12 [reference compound] | – | – | – | – | cellular assay: effect (Tankyrase [2]; at 30 μM, prior art compound): no effect; IC50 (TNKS1; [5]): 5.9e-07 M; IC50 (TNKS2; prior art compounds, read-out: IC50 (TNKS2)): 6e-07 M |
| COc1ccc(C(=O)C2CCN(CC(=O)N(Cc3nc4c(c(=O)[nH]3)COCC4)CC3CC3)CC2)cc1 [reference compound] | – | – | – | – | EC50 (Tankyrase [2]): 35 nM; IC50 (TNKS1; [5]): 2e-09 M |
| COc1ccccc1NC(=O)c1ccc(NC(=O)CCc2nc3ccccc3c(=O)[nH]2)cc1 [reference compound] | – | – | – | – | EC50 (Tankyrase [2]): 320 nM; IC50 (TNKS1; [5]): 7.4e-09 M |
